We go through 37 molecules from patent US20250304537A1 (Repare Therapeutics Inc., priority 2022, published 2025).

Read-outs that look alike come from different tables or passages of the source.

Assay [1] deals with recombinant human Myt1 (full length PKMYT1) (Homo sapiens (Human), UniProt Q99640). The assay is described as follows: Recombinant human Myt1 kinase assay (ADP-Glo). Type of assay: biochemical. The following applies: 10 μM ATP. The essentials:
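Full-length insect-cell-expressed human Myt1 (18 nM final) was preincubated with compound (0.5% DMSO) for 15 min at 22 °C. The reaction ran with 10 μM ATP for 60 min at 30 °C in HEPES buffer with Mg2+/Mn2+ and DTT. ADP formed was read by ADP-Glo luminescence, giving IC50 and % max inhibition.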

Assay [2] concerns PKMYT1 (CDK1 pThr14) in FUOV1 cells. Nature of the assay: PKMYT1 cell-based activity assay, CDK1 pThr14 AlphaLISA in FUOV1 cells. The following applies: read-out: FUOV-1 CDK1 pThr14 IC50. The essentials:
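FUOV1 cells were treated with PKMYT1 inhibitor for 2 h at 37 °C, then lysed. CDK1 pThr14 was measured by AlphaLISA, pairing an anti-pThr14 antibody with an anti-total CDK1 antibody (5 nM each). Signal read at 680/615 nm and used to derive IC50.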

Sequence of recombinant human Myt1 (full length PKMYT1) (Q99640 whole entry): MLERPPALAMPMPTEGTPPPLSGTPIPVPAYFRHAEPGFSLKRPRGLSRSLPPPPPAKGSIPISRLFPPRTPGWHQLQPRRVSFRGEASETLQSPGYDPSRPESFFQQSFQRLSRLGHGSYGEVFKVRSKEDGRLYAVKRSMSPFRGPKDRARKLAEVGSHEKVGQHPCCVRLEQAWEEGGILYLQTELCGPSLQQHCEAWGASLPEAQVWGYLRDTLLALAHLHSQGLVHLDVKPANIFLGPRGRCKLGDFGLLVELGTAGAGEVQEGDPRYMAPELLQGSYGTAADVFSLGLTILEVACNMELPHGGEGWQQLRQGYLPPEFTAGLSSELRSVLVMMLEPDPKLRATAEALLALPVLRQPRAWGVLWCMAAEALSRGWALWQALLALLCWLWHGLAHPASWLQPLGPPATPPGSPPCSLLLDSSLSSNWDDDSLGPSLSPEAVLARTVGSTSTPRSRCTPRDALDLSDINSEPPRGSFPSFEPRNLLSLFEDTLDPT

For `Cc1ccc(O)c(C)c1-c1cc(-c2cncs2)nc(C(N)=O)c1N` [Compound 82], the IC50 in assay [1] is 7 nM; in assay [2] (2 h, 2 h incubation), 107 nM.

`Cc1ccc2[nH]ncc2c1-c1nc(-c2cccnc2NCC2CCCCO2)nc(C(N)=O)c1N` (centres unmarked) [Compound 604]: the IC50 in assay [1] turned out to be 16 nM; in assay [2] (2 h, 2 h compound incubation), 794 nM.

For `CCNc1ccccc1-c1nc(C(N)=O)c(N)c(-c2c(C)ccc3[nH]ncc23)n1` [Compound 442], the IC50 in assay [1] came to 4 nM; in assay [2] (2 h, 2 h compound incubation), 33 nM.

With `Cc1ncc(C#N)c(Nc2cc(F)ccc2-c2nc(C(N)=O)c(N)c(-c3c(C)ccc4[nH]ncc34)n2)n1` [Compound 618], the IC50 stood at 3 nM in assay [1] and 5 nM in assay [2] (2 h, 2 h compound incubation).

Regarding `Cc1ccc2[nH]ncc2c1-c1nc(-c2ccc(C(F)(F)F)cc2NC(=O)C2(C)CC2)nc(C(N)=O)c1N` [Compound 454, 5-amino-6-(5-methyl-1H-indazol-4-yl)-2-(2-(1-methylcyclopropane-1-carboxamido)-4-(trifluoromethyl)phenyl)pyrimidine-4-carboxamide], the IC50 was 26 nM in assay [1] and 447 nM in assay [2] (2 h, 2 h compound incubation).

As for `Cc1ccc2[nH]ncc2c1-c1nc(-c2cccnc2NCCn2ccnc2C)nc(C(N)=O)c1N` [Compound 884], the IC50 in assay [1] was determined as 13 nM; in assay [2] (2 h, 2 hours with compound), 1610 nM.

For the molecule `Cc1ccc2[nH]ncc2c1-c1nc(-c2cccnc2N)nc(C(N)=O)c1N` [Compound 469], the IC50 in assay [1] is 12 nM; in assay [2] (2 h, 2 h compound incubation), 540 nM.

Regarding `Cc1cccc(NC(=O)C2(C)CC2)c1-c1nc(C(N)=O)c(N)c(-c2c(C)ccc3[nH]ncc23)n1` [Compound 457], the IC50 in assay [1] was 516 nM; in assay [2] (2 h, 2 h compound incubation) it was above 10000 nM.

As to `Cc1ccnc(Nc2cc(F)ccc2-c2nc(C(N)=O)c(N)c(-c3c(C)ccc4[nH]ncc34)n2)c1` [Compound 616], the IC50 in assay [1] was 11 nM; in assay [2] (2 h, 2 h compound incubation), 192 nM.

`NC(=O)c1nc(-c2ccccc2)nc(-c2cccc3[nH]ncc23)c1N` [Compound 68]: the IC50 is 50 nM in assay [1] and above 10000 nM in assay [2] (2 h, 2 h incubation).

For `COC1(C(=O)Nc2ccccc2-c2nc(C(N)=O)c(N)c(-c3c(C)ccc4[nH]ncc34)n2)CC1` [Compound 432], the IC50 in assay [1] stood at 5 nM; in assay [2] (2 h, 2 h compound incubation), 105 nM.

As to `Cc1ccc(O)c(C)c1-c1cc(C(=O)Nc2cccnc2)nc(C(N)=O)c1N` [Compound 188, 5-amino-4-(3-hydroxy-2,6-dimethylphenyl)-N2-(pyridin-3-yl)pyridine-2,6-dicarboxamide], the IC50 in assay [1] came to 8 nM; in assay [2] (2 h, 2 h incubation) it was 266 nM.

For the molecule `Cc1ccc2[nH]ncc2c1-c1nc(-c2ccccc2)nc(C(N)=O)c1N` [Compound 65], the IC50 in assay [1] came to 22 nM; in assay [2] (2 h, 2 h incubation), 1070 nM.

For the molecule `Cc1ccc(O)cc1-c1nc(-c2ccc(N3CCN(CCO)CC3)cc2)nc(C(N)=O)c1N` [Compound 6], the IC50 was 24 nM in assay [1] and 1010 nM in assay [2] (2 h, 2 h incubation).

As for `Cc1ccc2[nH]ncc2c1-c1nc(-c2cccc3c2NC(=O)C3)nc(C(N)=O)c1N` [Compound 385], the IC50 in assay [1] worked out at 5 nM; in assay [2] (2 h, 2 h incubation) it was 289 nM.

`Cc1ccc2[nH]ncc2c1-c1nc(-c2cc(F)c(F)cc2NS(=O)(=O)C2CC2)nc(C(N)=O)c1N` [Compound 480]: the IC50 in assay [1] was 5 nM; in assay [2] (2 h, 2 h compound incubation), 158 nM.

Regarding `Cc1ccc(O)c(C)c1-c1cc(-c2ncc(F)cc2F)nc(C(N)=O)c1N` [Compound 39], the IC50 came out at 7 nM in assay [1] and 266 nM in assay [2] (2 h, 2 h incubation).

Regarding `Cc1ccc2[nH]ncc2c1-c1cc(-c2cccnc2)nc(C(N)=O)c1N` [Compound 107], the IC50 in assay [1] amounted to 11 nM; in assay [2] (2 h, 2 h incubation), 495 nM.

With `Cc1ccc2[nH]ncc2c1-c1cc(-c2cccc(OCCN3CCCC3)n2)nc(C(N)=O)c1N` [Compound 180], the IC50 in assay [1] stood at 10 nM; in assay [2] (2 h, 2 h incubation), 99 nM.

For the molecule `Cc1ccc(O)c(C)c1-c1cc(-c2ccnnc2)nc(C(N)=O)c1N` [Compound 63], the values for the IC50 in assay [1] and in assay [2] (2 h incubation) were 5 nM and 40 nM, respectively.

Take `Cc1ccc(O)c(C)c1-c1cc(-c2nccs2)cc(C(N)=O)c1N` [Compound 81]: the IC50 in assay [1] came out at 5 nM; in assay [2] (2 h, 2 h incubation), 112 nM.

`Cc1ccc2[nH]ncc2c1-c1nc(-c2ccccc2C(C)O)nc(C(N)=O)c1N` (centres unmarked) [Compound 787]: the IC50 in assay [1] was 4 nM; in assay [2] (2 h, 2 h compound incubation) it was 278 nM.

As for `Cc1ccc2[nH]ncc2c1-c1nc(-c2ccccc2NC(C)C)nc(C(N)=O)c1N` [Compound 419], the IC50 turned out to be 4 nM in assay [1] and 49 nM in assay [2] (2 h, 2 h compound incubation).

Turning to `Cc1ccc2[nH]ncc2c1-c1nc(-c2cccnc2Nc2cccc(C(F)(F)F)c2)nc(C(N)=O)c1N` [Compound 608], the concentration for half-maximal inhibition (IC50) stood at 29 nM in assay [1] and 1390 nM in assay [2] (2 h, 2 h compound incubation).

Turning to `Cc1ccc2[nH]ncc2c1-c1nc(-c2cccnc2N[C@H]2CCOCC2(C)C)nc(C(N)=O)c1N` [Compound 830], the IC50 came out at 8 nM in assay [1] and 305 nM in assay [2] (2 h, 2 hours with compound).

Regarding `Cc1ccc2[nH]ncc2c1-c1cc(-c2ccnc(OC3CCOCC3)n2)nc(C(N)=O)c1N` [Compound 169], the IC50 is 8 nM in assay [1] and 120 nM in assay [2] (2 h, 2 h incubation).

In the case of `Cc1ccc2[nH]ncc2c1-c1nc(-c2ccccc2NC(=O)C2(C)CCC2)nc(C(N)=O)c1N` [Compound 416], the IC50 in assay [1] stood at 7 nM; in assay [2] (2 h, 2 h compound incubation) it was 22 nM.

As for `Cc1ccc(O)c(C)c1-c1cc(-c2ccnnc2)cc(C(N)=O)c1N` [Compound 93], the IC50 in assay [1] is 25 nM; in assay [2] (2 h, 2 h incubation), 937 nM.

With `COCCOc1cccc(-c2cc(-c3c(C)ccc4[nH]ncc34)c(N)c(C(N)=O)n2)n1` [Compound 245], the IC50 in assay [1] amounted to 10 nM; in assay [2] (2 h, 2 h incubation) it was 539 nM.

Consider `Cc1cc(F)c2[nH]ncc2c1-c1nc(-c2cn(C)nc2NC2CCOCC2)nc(C(N)=O)c1N` [Compound 903, 5-amino-6-(7-fluoro-5-methyl-1H-indazol-4-yl)-2-(1-methyl-3-((tetrahydro-2H-pyran-4-yl)amino)-1H-pyrazol-4-yl)pyrimidine-4-carboxamide], for which the IC50 in assay [1] amounted to 4 nM; in assay [2] (2 h, 2 hours with compound) it was 195 nM.

On to `Cc1ccc2[nH]ncc2c1-c1cc(-c2ccnc(OCc3ccncc3)n2)nc(C(N)=O)c1N` [Compound 230], for which the IC50 stood at 4 nM in assay [1] and 208 nM in assay [2] (2 h, 2 h incubation).

Consider `Cc1ccc2[nH]ncc2c1-c1nc(-c2cc(F)c(F)cc2NC(=O)C2(C#N)CC2)nc(C(N)=O)c1N` [Compound 477], for which the IC50 is 3 nM in assay [1] and 26 nM in assay [2] (2 h, 2 h compound incubation).

On to `Cc1ccc2[nH]ncc2c1-c1cc(-c2cccc(OC[C@H](N)c3ccccc3)n2)nc(C(N)=O)c1N` (atropisomer, axis not shown) [Compound 338], for which the values for the IC50 in assay [1] and in assay [2] (2 h incubation) were 165 nM and 284 nM, respectively.

As to `Cc1ccc2[nH]ncc2c1-c1nc(-c2cc(F)cc(F)c2NCC(F)F)nc(C(N)=O)c1N` [Compound 436], the IC50 in assay [1] worked out at 7 nM; in assay [2] (2 h, 2 h compound incubation), 206 nM.

As to `Cc1ccc2[nH]ncc2c1-c1nc(-c2ccccc2NC(=O)C(C)c2ccccc2)nc(C(N)=O)c1N` (centres unmarked) [Compound 425], the IC50 in assay [1] is 139 nM; in assay [2] (2 h, 2 h compound incubation) it was above 10000 nM.

`Cc1ccc2[nH]ncc2c1-c1nc(-c2ccccc2NC(=O)C(C)(C)C)nc(C(N)=O)c1N` [Compound 377]: the IC50 in assay [1] came out at 3 nM; in assay [2] (2 h, 2 h incubation), 21 nM.

With `Cc1ccc2[nH]ncc2c1-c1nc(-c2ccccc2NC(=O)C2(C#N)CC2)nc(C(N)=O)c1N` [Compound 423], the IC50 came out at 4 nM in assay [1] and 23 nM in assay [2] (2 h, 2 h compound incubation).
